From PMC7356998, “Intrinsic Dissolution Rate Profiling of Poorly Water-Soluble Compounds in Biorelevant Dissolution Media” (Pharmaceutics, 2020)
Values after ≈ are worked out from the molar mass of the structure shown. Like-named read-outs stand apart in the source and are kept apart here. Marks after values point to notes of the source that are not given here.

Assays:
[1] = Intrinsic dissolution rate from controlled suspensions (SIDR), μDiss Profiler; type: physicochemical; details: for IDRFaSSIF-V1 / IDRFaSSIF-V2 / IDRFeSSIF-V2: suspension (S), 100 rpm, mean ± SD; for IDRFaSSIF-V1: FaSSIF-V1 pH 6.5, 37 °C; for IDRFaSSIF-V2: FaSSIF-V2 pH 6.5, 37 °C; for IDRFeSSIF-V2: FeSSIF-V2 pH 5.8, 37 °C; for IDR in fed-state medium (FeSSIF-V1) compared to fasted-state (FaSSIF-V1): suspension assays
Procedure: Controlled suspensions of the APIs were prepared by tip ultrasonication in suspension media. For compatibility reasons, the suspension medium composition was 2% PVP K30 and 0.2% SDS in MilliQ water for acidic and neutral compounds or 1% HPMC and 0.2% SDS in MilliQ water for basic compounds. Suspension media were stirred for at least an hour until a clear solution was obtained. All suspensions were prepared at a concentration of 4 mg API/mL suspension medium by weighing 16 mg of the compound into a glass vial and adding 4 mL of the corresponding suspension medium. The suspension was then briefly vortexed prior to 5 min of tip ultrasonication using a Vibra-Cell sonicator mounted with a 13 mm (Ø) probe tip (Sonics, Newtown, CT, USA). The following settings were used: 20% amplitude, pulse 10 s on and 5 s off. The vial containing the suspension was placed in a beaker with ice during ultrasonication to avoid heating. Felodipine and griseofulvin were treated slightly differently to avoid forming a large fraction of submicron-sized particles. The felodipine suspension was only ultrasonicated for 1 min, and the griseofulvin suspension was used immediately after vortexing and without ultrasonication. All prepared suspensions were kept in an oven at 37 °C prior to use in the dissolution experiments. Dissolution experiments were performed within three hours of sample preparation.
The freshly prepared suspension was diluted (100 µL in 1 mL MilliQ water) and immediately used for determination of hydrodynamic particle size by dynamic light scattering (DLS; Litesizer 500, Anton Paar GmbH, Graz, Austria) at 25 °C. Peak values from the intensity-based particle size distribution were used for calculating total particle surface area in the suspension following the approach of Andersson et al.. In case of bimodal particle size distributions, an intensity peak weighted average particle size was calculated. The following assumptions were made for the surface area calculations: (i) spherical particles, (ii) constant particle size, and (iii) constant number of particles during the initial phase of the dissolution experiment (i.e., under sink conditions or <0.3 × Sapp). Using these assumptions, the volume of each particle (Vparticle) is:(1) Vparticle=4πr^3/3, where r is the mean radius of the suspended particles. The particle surface area (SAparticle) is:(2) SAparticle=4πr^2, and the volume of compound (Vmaterial) added to the dissolution medium is:(3) Vmaterial=m/ρ, where m is the total mass of compound added and ρ is the density of the compound. The total number of particles (n) in the suspension can thus be calculated from:(4) nparticles=Vmaterial/Vparticle
Finally, the total surface area (A, cm^2) of all particles present in the suspension added to the dissolution medium is calculated through:(5) A=nparticlesSAparticle
Dissolution experiments were carried out in a small-scale dissolution apparatus using in situ fiber optic probes to measure the amount of drug dissolved over time by UV absorbance (μDiss Profiler, Pion Inc., Billerica, MA, USA). Drug dissolution was carried out from suspensions (S) or discs (D) depending on the solubility of the compound in the biorelevant media studied (Table 3). […].
Standard curves were established by adding aliquots of DMSO stock solutions of the compounds to 3 mL of biorelevant medium, respectively. Dissolution media were prepared following the protocol provided by Biorelevant.com Ltd. and used within 48 h after their preparation. The media were incubated at 37 °C for at least one hour prior to use in the dissolution experiments. The hydrodynamic diameter of the micelles/vesicles formed in the biorelevant media were measured by DLS (Table 2). […] The biorelevant dissolution medium was maintained at 37 °C in the μDiss Profiler and stirred at 800 rpm during addition of the DMSO stock aliquots. […]

[2] = apparent solubility, cited from earlier work; for SFaSSIF-V1: FaSSIF-V1 pH 6.5; for SFeSSIF-V1: FeSSIF-V1 pH 5
[3] = Apparent solubility estimated from dissolution experiments in the μDiss Profiler; type: physicochemical; details: for solubility thermodynamic: thermodynamic from solid
Procedure: If literature values were not available, Sapp values were estimated from the dissolution experiments either from the steady state concentration reached during dissolution making use of an excess amount material, or by nonlinear regression analysis of the dissolution data in GraphPad Prism 7.04 (GraphPad Software Inc., San Diego, CA, USA). […] In these experiments, an excess amount of drug was added to triplicate Eppendorf tubes containing 1 mL of the respective dissolution medium. The tubes were vortexed and placed in a 37 °C incubator. Samples for HPLC analysis were taken 24, 48, and 72 h (triplicates at each time point) after initiation of the experiment to ensure that equilibrium had been reached. The samples were centrifuged at 37 °C, 23,000 g for 10 min (Heraeus Megafuge 8R, Thermo Scientific, Waltham, MA, USA). The supernatant was sampled, diluted 1:1 with acetonitrile, and kept refrigerated until HPLC analysis. The concentrations of the dissolved drugs were determined using a HPLC (Agilent Technologies 1290 Infinity, Santa Clara, CA, USA) with a Zorbax Eclipse XDB-C18 column (4.6 × 100 mm; Agilent Technologies, Santa Clara, CA, USA) kept at 40 °C. The injection volumes were 20 μL. A mobile phase 0.1% formic acid in acetonitrile: 0.1% formic acid in water 60:40 (v/v) and an isocratic flow rate at 1 mL/min were used for both naproxen and ethinylestradiol. UV absorbances were monitored at a wavelength of 232 nm for naproxen and 315 nm for ethinylestradiol. The retention time was 1.76 min for naproxen and 1.85 min for ethinylestradiol. Dissolution experiments were carried out in a small-scale dissolution apparatus using in situ fiber optic probes to measure the amount of drug dissolved over time by UV absorbance (μDiss Profiler, Pion Inc., Billerica, MA, USA). Drug dissolution was carried out from suspensions (S) or discs (D) depending on the solubility of the compound in the biorelevant media studied (Table 3). […] Glass vials (six in parallel), each containing 15 mL of biorelevant dissolution medium and a crossbar stirrer, were used for the dissolution experiments. The stirring rate was set to 100 rpm. Freshly prepared API suspensions were briefly vortexed to re-disperse any sediments and 500 μL of suspension was added to each vial to initiate the experiment. […] Experiments were run for at least 20 min with data collected every 1 s for the first 8 min and then once per minute for the remaining time. All dissolution experiments from suspensions were carried out in triplicate.

[4] = Intrinsic dissolution rate from miniaturized discs (DIDR), μDiss Profiler; type: physicochemical; details: disc (D), 100 rpm, mean ± SD; for IDRFaSSIF-V1: FaSSIF-V1 pH 6.5, 37 °C
Procedure: Dissolution experiments were carried out in a small-scale dissolution apparatus using in situ fiber optic probes to measure the amount of drug dissolved over time by UV absorbance (μDiss Profiler, Pion Inc., Billerica, MA, USA). Drug dissolution was carried out from suspensions (S) or discs (D) depending on the solubility of the compound in the biorelevant media studied (Table 3). […] Standard curves were established by adding aliquots of DMSO stock solutions of the compounds to 3 mL of biorelevant medium, respectively. Dissolution media were prepared following the protocol provided by Biorelevant.com Ltd. and used within 48 h after their preparation. The media were incubated at 37 °C for at least one hour prior to use in the dissolution experiments. The hydrodynamic diameter of the micelles/vesicles formed in the biorelevant media were measured by DLS (Table 2). […] Stirring was turned off while measuring the UV absorbance for each aliquot and the standard curve was established based on six aliquots. […] Intrinsic dissolution rates will henceforth be denoted 'IDR' for both SIDR and DIDR values determined in this study (see Table 3 for details).

[5] = FaSSIF-V1, 37 °C, pH 6.5, fassif, FaSSIF-V1 pH 6.5, determined from dissolution experiments in the μDiss Profiler, read-out: SFaSSIF-V1
[6] = FaSSIF-V1 pH 6.5, determined from dissolution experiments in the μDiss Profiler
[7] = FeSSIF-V1, 37 °C, pH 5, fessif, FeSSIF-V1 pH 5, determined from dissolution experiments in the μDiss Profiler, read-out: SFeSSIF-V1

Compound | IDRFaSSIF-V1 [1] [μg/min/cm^2] | IDRFaSSIF-V2 [1] [μg/min/cm^2] | IDRFeSSIF-V2 [1] [μg/min/cm^2] | SFaSSIF-V1 [2] | SFeSSIF-V1 [2] | further results
CC(C)(Oc1ccc(CCNC(=O)c2ccc(Cl)cc2)cc1)C(=O)O [Bezafibrate] | 32.7 ± 3.9 |  |  |  |  | solubility thermodynamic [3, 5]: ~100 µg/mL (≈ 276 µM); SFaSSIF-V1 [3, 6]: 91.0 ± 8.9 µg/mL; SFeSSIF-V1 ([3]; FeSSIF-V1 pH 5, extrapolation of μDiss dissolution data by nonlinear regression (GraphPad Prism)): 105.7 ‡ μg/mL
COc1ccccc1OCCNCC(O)COc1cccc2[nH]c3ccccc3c12 (stereo not shown) [Carvedilol] | 2.9 ± 0.5 | 1.5 ± 0.2 | 13.6 ± 0.6 | 55.9 ± 1.0 [15] μg/mL | 305 ± 2 [15] μg/mL | 
C#C[C@]1(O)CC[C@H]2[C@@H]3CCC4=Cc5oncc5C[C@]4(C)[C@H]3CC[C@@]21C [Danazol] | 0.14 ± 0.02 |  |  |  |  | IDR in fed-state medium (FeSSIF-V1) compared to fasted-state (FaSSIF-V1) [1]: 28 fold
OCCN(CCO)c1nc(N2CCCCC2)c2nc(N(CCO)CCO)nc(N3CCCCC3)c2n1 [Dipyridamole] | 0.5 ± 0.05 | 0.5 ± 0.03 | 1.7 ± 0.3 | 11.1 ± 3.0 [48] μg/mL | 148.9 ± 19.7 [48] μg/mL | SFaSSIF-V1 ([2]; listed as dipyridamole): 11 to 13 µg/mL
CCOC(=O)C1=C(C)NC(C)=C(C(=O)OC)C1c1cccc(Cl)c1Cl (stereo not shown) [Felodipine] | 0.8 ± 0.4 | 0.6 ± 0.2 | 1.5 ± 0.2 | 31.8 ± 1.7 [7] μg/mL | 44.9 ± 9.2 [48] μg/mL | 
CC(C)(Oc1ccc(C(=O)c2ccc(Cl)cc2)cc1)C(=O)O [Fenofibric acid] |  |  |  |  |  | IDRFaSSIF-V1 [4]: 227 ± 33 μg/min/cm^2; solubility thermodynamic [3, 5]: ~100 µg/mL (≈ 314 µM); SFaSSIF-V1 [3, 6]: 104.8 ± 1.0 µg/mL; solubility thermodynamic [3, 7]: 101 ± 3.8 µg/mL (≈ 318 µM)
COC1=CC(=O)C[C@@H](C)[C@]12Oc1c(Cl)c(OC)cc(OC)c1C2=O [Griseofulvin] | 3.7 ± 0.6 |  |  | 23.4 ± 1.8 [41] μg/mL | 29.2 ± 3.4 [41] μg/mL | IDR in fed-state medium (FeSSIF-V1) compared to fasted-state (FaSSIF-V1) [1]: lower
COc1ccc2c(c1)c(CC(=O)O)c(C)n2C(=O)c1ccc(Cl)cc1 [Indomethacin] |  |  |  | 421.7 ± 17.6 [7] μg/mL | 109.0 ± 7.0 [15] μg/mL | IDRFaSSIF-V1 [4]: 31 ± 1.3 μg/min/cm^2
COc1ccc2cc([C@H](C)C(=O)O)ccc2c1 [Naproxen] |  |  |  |  |  | IDRFaSSIF-V1 [4]: 144 ± 12 μg/min/cm^2; IDRFaSSIF-V2 ([4]; FaSSIF-V2 pH 6.5, 37 °C): 179 ± 11 μg/min/cm^2
COc1ccc2c(c1OC)C(=O)O[C@@H]2[C@H]1c2c(cc3c(c2OC)OCO3)CCN1C [Noscapine] | 1.1 ± 0.2 | 1.2 ± 0.1 | 5.2 ± 0.8 |  |  | SFaSSIF-V1 ([3]; FaSSIF-V1 pH 6.5, extrapolation of μDiss dissolution data by nonlinear regression (GraphPad Prism)): 13.4 ‡ μg/mL; SFaSSIF-V1 ([3]; FaSSIF-V1 pH 6.5, extrapolation of μDiss dissolution data by nonlinear regression (GraphPad Prism), listed as noscapine): 11 to 13 µg/mL
CN1CC(=O)N2[C@H](c3ccc4c(c3)OCO4)c3[nH]c4ccccc4c3C[C@@H]2C1=O [Tadalafil] | 3.4 ± 0.7 | 1.3 ± 0.8 |  | 5.9 ± 0.7 [7] μg/mL |  | IDR in fed-state medium (FeSSIF-V1) compared to fasted-state (FaSSIF-V1) [1]: double; solubility thermodynamic [3, 7]: 21 ± 0.5 µg/mL (≈ 53.9 µM)

More lines, main results first:

IDRFaSSIF-V1 [1] [μg/min/cm^2] | IDRFaSSIF-V2 [1] [μg/min/cm^2] | IDRFeSSIF-V2 [1] [μg/min/cm^2] | Compound | SFaSSIF-V1 [2] | SFeSSIF-V1 [2] | further results
8.6 ± 0.4 | 2.0 ± 0.2 |  | COc1ccc(CCN2CCC(Nc3nc4ccccc4n3Cc3ccc(F)cc3)CC2)cc1 [Astemizole] | 97.9 ± 2.1 [15] μg/mL | 182 ± 1 [15] μg/mL | SFaSSIF-V1 ([2]; listed as astemizole): ~ 100 μg/mL
0.3 ± 0.01 |  |  | C(=C\c1ccccc1)/CN1CCN(C(c2ccccc2)c2ccccc2)CC1 [Cinnarizine] |  |  | 
0.04 ± 0.002 | 0.05 ± 0.001 | 2.7 ± 0.3 | CC(C)OC(=O)C(C)(C)Oc1ccc(C(=O)c2ccc(Cl)cc2)cc1 [Fenofibrate] |  |  | 
13.9 ± 2.0 | 11.9 ± 1.0 | 7.9 ± 2.1 | Cc1cccc(Nc2ccccc2C(=O)O)c1C [Mefenamic acid] |  |  | solubility thermodynamic [3, 5]: 36.6 ± 0.6 µg/mL (≈ 152 µM); solubility thermodynamic [3, 7]: 33.2 ± 0.7 µg/mL (≈ 138 µM)
16.8 ± 0.5 |  |  | CC(=O)[C@H]1CC[C@H]2[C@@H]3CCC4=CC(=O)CC[C@]4(C)[C@H]3CC[C@]12C [Progesterone] | 25.5 ± 1.1 [50] μg/mL | 78.6 ± 16.2 [41] μg/mL | 
4.1 ± 0.8 | 12.9 ± 0.9 | 4.8 ± 0.6 | Cc1c(Cl)cccc1Nc1ccccc1C(=O)O [Tolfenamic acid] | 63.0 ± 2.7 [15] μg/mL | 41.0 ± 0.5 [15] μg/mL | 
